The record followed here is ChEMBL document CHEMBL1147077, “Induced-fit tightens pleuromutilins binding to ribosomes and remote interactions enable their selectivity” (Proc Natl Acad Sci U S A, 2007).

The nature of assay [1]: Displacement of [3H]SB-2587891 from Escherichia coli ribosomes. The class given is subcellular, Ribosome. Background: In a radioligand displacement assay an active substance lowers the binding of a labelled ligand.
Another assay deals with Streptococcus pyogenes. The assay is described as follows: Antimicrobial activity against Streptococcus pyogenes. The class given is functional.
In a further assay the test system is Staphylococcus aureus. Put plainly: Antimicrobial activity against Staphylococcus aureus. The assay is classed as functional.

As a reminder, the Kd is the constant that tells how readily two partners part at equilibrium. The low end stands for a tighter complex, the high end for a looser complex. In the case of `C=C[C@]1(C)C[C@@H](OC(=O)CSC2CCNCC2)[C@]2(C)[C@H](C)CC[C@]3(CCC(=O)[C@H]32)[C@@H](C)[C@@H]1O`, the Kd in assay [1] amounted to 7.5 nM.

As for `C=C[C@]1(C)C[C@@H](OC(=O)NC(=O)c2ccc(N)nn2)[C@]2(C)[C@H](C)CC[C@]3(C[C@H](O)C(=O)[C@H]32)[C@@H](C)[C@@H]1O`, the Kd in assay [1] came out at 11.1 nM.

A word on the MIC: it is the lowest concentration found to suppress growth. A low value points to a more susceptible organism. `C=C[C@]1(C)C[C@@H](OC(=O)CS[C@@H]2C[C@H]3CC[C@@H](C2)N3C)[C@]2(C)[C@H](C)CC[C@]3(CCC(=O)[C@H]32)[C@@H](C)[C@@H]1O` [RETAPAMULIN]: the MIC against Streptococcus pyogenes and against Staphylococcus aureus was at most 0.5 µg/mL each time. In assay [1], this compound registered a Kd of 2 nM.
